“Also recorded” adds a separate entry of the source. Residues, ends and D or L forms follow the SMILES beside them. *: point of attachment. Cbz = O=C(OCc1ccccc1)*; CH2F = FC*
Key:
[1] = test system: TNBC-bearing BALB/c nude mice; details: mouse, in vivo
neutrophils = experiment: Phagocytosis by neutrophils (fluorescence microscopy); type: cell-based, human; details: incubated 4 hours
primary TNBC cells = experiment: Uptake by primary TNBC cells (fluorescence microscopy); type: cell-based, human; details: incubated 6 hours
[2] = test system: TNBC-bearing BALB/c nude mice; experiment: In vivo distribution and tumor uptake in TNBC-bearing mice; details: tail vein injection, fluorescent in vivo imaging
TNBC cells [3] = experiment: Apoptosis by flow cytometry (Annexin V-FITC/PI); type: cell-based, human
Protocol: (§1) The treated cells were digested with pancreatic enzymes and then were collected and washed with PBS. The cells were immobilized with pre-cooled 70% ethanol at 4 ℃ for 12-24 hours, and then centrifuged, washed, and suspended to ensure uniform cell dispersion. Propyridine iodide staining solution was added to each cell sample and incubated without light at 37 ℃ for 30 minutes. Subsequently, the labeled cells were subjected to cell cycle analysis using flow cytometer (Beckman Coulter, USA), and the results were processed by FlowJo software. For the apoptosis assay, 1 × 10^5 cells per sample were collected into 1.5 mL centrifuge tubes and were re-suspended with 195 μL Annexin V-FITC binding solution. Then, 5 μL Annexin V-FITC and 10 μL PI dyeing solution were added into every sample to re-suspend the cells and incubated at 20-25 °C for 20 minutes. Flow cytometry was used to detect red fluorescence at 638 nm and green fluorescence at 488 nm, and the apoptosis results were analysed by FlowJo software.

MCF-10A cells = type: cell-based, human
Protocol: Furthermore, the toxicity and side effects of PMD (Angoline) were evaluated through a comprehensive series of experiments. Firstly, normal breast epithelial cells (MCF-10A) were used to assess drug toxicity. […] Furthermore, we tested the immune-promoting cytokines, such as TNF-α, IL-1β and IL-6.

[4] = test system: primary TNBC cell xenograft tumors; experiment: In vivo antitumor efficacy, primary TNBC xenograft; design: species or system BALB/c nude mice
Protocol: Xenograft tumor models were established by injecting primary TNBC cells under the skin of BALB/c nude mice. Then, one week after implantation, the mice were administered with normal saline, Angoline, PMD and PMD (Angoline) respectively via tail vein injection every 3 days. Also, the tumor volume in mice was measured every three days. […] Finally, all mice were sacrificed three weeks later and xenografts were removed. […] Additionally, significant differences in tumor weight were observed among the four groups (Fig. […]). […] Thus, we performed immunofluorescence staining to analyze the expression of Ki-67 in different groups. […] Furthermore, TUNLE staining was performed to evaluate the apoptosis of tumors treated with different drugs (Fig. 5E). […] PMD(Angoline) was prepared by encapsulating Angoline into tDNAn following the assembly steps mentioned above. Tumor-bearing mice were established using primary TNBC cells obtained from patients, following the methods described in the animal assessment section. Then, those mice were intravenously administrated with saline, Angoline, PMD and PMD(Angoline) every 3 days, respectively. Meanwhile, the tumor volume and mice weight were continuously monitored every 3 days. Ultimately, the mice were sacrificed after three weeks to obtain the tumors and vital organs (heart, liver, spleen, lung and kidney). Ki-67 expression was detected by immunofluorescence to determine the tumor growth in different groups. Also, HE staining was used to determine the damage of different drugs to important organs.

[5] = test system: phosphotyrosine STAT3 (p-STAT3); experiment: Western blot of p-STAT3 in TNBC cells; type: cell-based, human
Protocol: Disruption of the IL6/STAT3 signaling pathway can induce cell cycle arrest and apoptosis, which may contribute to the tumor cell death observed in our study following Angoline treatment. Thus, WB analysis was performed to verify our hypothesis. […] These changes were also observed in tumor-bearing mice treated with Angoline (Fig. 3G). Thus, Angoline may also killing the TNBC cells by inhibiting the IL6/STAT3 signaling pathway.
TNBC cells were inoculated in 10-cm plates with 50–60% confluence and incubated for 24 hours. Then, after cleaning the cells with PBS three times, the total proteins of cells were harvested by adding the RIPA lysis buffer and 1% Phenylmethanesulfonyl Fluoride (PMSF) into the plates and scraping off the lysed cells. The total proteins were calculated by the BCA protein estimation assay and were isolated by 10% SDS‒PAGE. The protein was transferred onto the PVDF membrane and then blocked with 5% skim milk powder for 2 hours. The protein bands were probed with corresponding antibodies and incubated at 4 °C overnight. Then, the secondary antibodies were added and incubated 1 h at room temperature. Finally, the membranes were detected by the enhanced chemiluminescence detection system.

MORC2 protein = molecular target: T1, MORC2 protein (Homo sapiens, UniProt Q9Y6X9); experiment: SPR molecular interaction, MORC2 protein (WT); type: binding
T1 construct: 6xHis; made in house; host or cells: Escherichia coli BL21
T1 sequence (Q9Y6X9 1-1032): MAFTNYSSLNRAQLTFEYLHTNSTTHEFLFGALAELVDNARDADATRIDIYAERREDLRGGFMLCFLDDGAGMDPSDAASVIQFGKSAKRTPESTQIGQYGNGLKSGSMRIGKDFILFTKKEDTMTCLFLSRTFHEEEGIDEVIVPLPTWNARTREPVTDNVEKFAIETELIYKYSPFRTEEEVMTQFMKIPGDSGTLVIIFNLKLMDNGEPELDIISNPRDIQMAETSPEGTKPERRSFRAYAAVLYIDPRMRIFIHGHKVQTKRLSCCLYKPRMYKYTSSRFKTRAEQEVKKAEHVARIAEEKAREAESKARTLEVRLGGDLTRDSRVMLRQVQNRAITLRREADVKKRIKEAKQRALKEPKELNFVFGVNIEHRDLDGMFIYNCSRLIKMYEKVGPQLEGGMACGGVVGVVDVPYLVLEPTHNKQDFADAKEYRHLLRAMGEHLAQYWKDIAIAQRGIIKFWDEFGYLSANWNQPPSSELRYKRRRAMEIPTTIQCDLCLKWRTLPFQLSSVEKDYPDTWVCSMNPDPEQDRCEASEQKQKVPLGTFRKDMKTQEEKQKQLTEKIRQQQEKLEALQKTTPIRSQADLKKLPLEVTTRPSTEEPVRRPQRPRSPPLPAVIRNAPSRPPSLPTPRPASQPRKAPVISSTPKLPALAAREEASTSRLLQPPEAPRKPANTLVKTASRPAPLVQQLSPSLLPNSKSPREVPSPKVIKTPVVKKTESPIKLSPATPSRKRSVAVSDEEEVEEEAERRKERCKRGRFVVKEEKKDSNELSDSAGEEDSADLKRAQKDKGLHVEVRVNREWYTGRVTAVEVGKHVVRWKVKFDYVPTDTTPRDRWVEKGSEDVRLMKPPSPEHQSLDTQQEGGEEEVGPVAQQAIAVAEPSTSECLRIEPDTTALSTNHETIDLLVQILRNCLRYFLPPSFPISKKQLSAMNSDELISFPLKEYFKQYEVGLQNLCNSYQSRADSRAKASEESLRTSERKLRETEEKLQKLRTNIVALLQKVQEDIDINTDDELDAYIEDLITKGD
Protocol: Topscience biological small molecule compound library was used to virtually screen out the potential small molecules by computer molecular docking. […] Then, a series of experiments were conducted to evaluate the binding ability between small molecule compounds and MORC2 protein. First, the optimal conditions for purification of MORC2 protein were investigated by univariate optimization method. Protein induction experiments were conducted under varying concentrations of IPTG (0 mM, 0.1 mM, 0.2 mM, 0.5 mM, 0.8 mM, 1 mM), temperature gradients (16 °C, 22 °C, 29 °C, 37 °C), and induction time (3 h, 6 h, 8 h, 10 h, 12 h). Finally, at 0.1 mM IPTG concentration, especially at 22 °C for 8 h, MORC2 protein expression reached the optimal level, which was verified by Coomassie blue staining (Figs. S7A–C). We cleared the other proteins by Binding/Wash Buffer 3 times and eluted the MORC2 protein with imidazole at 40 mM concentration to extract the high purity MORC2 protein (Fig. S7D). MORC2 protein with high purity was obtained according to the above conditions and verified by Coomassie blue staining (Fig. S7E). Then, surface plasmon resonance molecular interaction experiment was performed to detect the binding ability between small molecule compounds and MORC2 protein. […] Also, the binding strength between MORC2 and Angoline was dose-dependent on the concentration of Angoline (Fig. 2C). […]

[6] = test system: IL6/STAT3 signaling pathway; design: method as in PMID 24863036; details: cited from earlier work
4T1 cells = experiment: CCK8 assay, 4T1; type: cell-based, mouse; details: CCK8, 4T1
Protocol: CCK8 assay was performed to confirm the optimal killing concentration of Angoline on TNBC cells (MDA-MB-231, MDA-MB-468, and 4T1) in vitro. […] Thus, we further verified our speculation by detecting the cell viability and apoptosis rate of TNBC cells treated with Angoline and/or apoptosis inhibitor (Z-VAD-FMK). As expected, the toxic effect of Angoline on TNBC cells was reduced by Z-VAD-FMK (Fig. 2F). […] Also, YO-PRO-1 staining confirmed that the proportion of apoptotic cells was reduced when Z-VAD-FMK was added in the Angoline treated group (Fig. 2H). […] While, the detailed pro-apoptotic mechanism needs to be further elucidated.

MDA-MB-468 cells = experiment: CCK8 assay, MDA-MB-468; type: cell-based, human; details: CCK8, MDA-MB-468, 24 h
Protocol: (§2) MDA-MB-231 and MDA-MB-468 cells were inoculated on 96-well plates with 5×10^3 cells per well, and then different small molecule drugs were added according to study requirements after the cell culture reached the appropriate density. Twenty-four hours after treatment, CCK-8 reagent was added to each well and incubated for 2 hours. Then, the absorbance of each well was measured at 450 nm using an enzyme-labeler to calculate the relative survival rate of cells.

MDA-MB-231 cells = experiment: CCK8 assay, MDA-MB-231; type: cell-based, human; details: CCK8, MDA-MB-231, 24 h
Protocol: as §2

[7] = Pharmacokinetic study, single intravenous injection; design: species or system Sprague-Dawley (SD) rats; details: Sprague-Dawley, rat, in vivo
Protocol: A pharmacokinetic (PK) study was performed to assess whether PMD could improve Angoline's systemic circulation and extend its half-life. Following a single intravenous injection of various formulations into Sprague-Dawley (SD) rats, blood samples were collected at predetermined time points and analyzed using HPLC. As illustrated in Fig. S19A and summarized in Table 1, the plasma concentration-time curves and PK parameters are presented. […] Furthermore, the data obtained from the area under the concentration-time curve (AUC) further confirmed the enhanced PK properties. Thus, the biomimetic nanodrug delivery system (PMD) confers Angoline with enhanced PK properties, attributed to its high stability and sustained drug release kinetics.

TNBC cells [8] = experiment: Cell cycle by flow cytometry; type: cell-based, human; details: TNBC cells after Angoline treatment
Protocol: as §1

## Rhodamine
[1]
  uptake in tumor tissue sections: rarely taken up by tumor cells
neutrophils
  uptake by neutrophils: neutrophils were entirely covered with red fluorescence
Primary TNBC cells
  uptake by primary TNBC cells: rarely taken up by TNBC cells
[2]
  distribution in tumor-bearing mice: rapidly diffused throughout the nude mice and was quickly cleared

## COC(=O)C[C@H](NC(=O)[C@H](C)NC(=O)[C@@H](NC(=O)OCc1ccccc1)C(C)C)C(=O)CF [Z-VAD-FMK, reference compound] (Cbz-Val-Ala-Asp(OMe)-CH2F)
TNBC cells [3]; TNBC cells, Angoline plus apoptosis inhibitor
  effect on the proapoptotic effect of Angoline: significantly reduce the proapoptotic effect of Angoline

## COc1ccc2c(c1OC)C(OC)N(C)c1c-2ccc2cc3c(cc12)OCO3 (stereo not shown) [Angoline]
MCF-10A cells
  toxicity toward MCF-10A cells: neither Angoline nor PMD (Angoline) exhibited toxicity
TNBC cells [3]; TNBC cells treated with Angoline
  apoptosis rate: significantly increased; also recorded: dramatically increased
[4]; tail vein injection every 3 days, three weeks
  primary tumor growth (tumor volume): significant suppression of the primary tumor growth
[4]; tumor tissue
  apoptosis of tumors (TUNEL staining): significantly higher apoptosis rate compared to the groups treated with saline or PMD
  proliferation capacity of tumor cell (Ki-67 immunofluorescence): significantly lower in the Angoline group than that in saline or PMD groups, but higher than PMD(Angoline) group
[4]; tumor-bearing mice, every 3 days
  body weight: significantly increased
[5]
  level of p-STAT3: significantly reduced
MORC2 protein
  Kd: 23.3 nM
[6]
  suppression of IL6/STAT3 signaling pathway: suppress the IL6/STAT3 signaling pathway
4T1 cells
  inhibitory effect on cell viability: progressively increased with higher concentrations
MDA-MB-468 cells
  killing effect / inhibitory effect on cell viability: strongest killing effect; also recorded: progressively increased with higher concentrations
MDA-MB-231 cells
  killing effect / inhibitory effect on cell viability: strongest killing effect; also recorded: progressively increased with higher concentrations
[7]
  C0: 3670 ± 280 ng/mL
[7]; SD rats, single i.v.
  AUC(0-inf): 15400 ± 190 ng·h/mL
  AUC(0-t): 13200 ± 320 ng·h/mL
  Cmax: 3410 ± 150 ng/mL
  MRT: 6.08 ± 0.18 h
  clearance: 2.29 mL/min
  half-life: 4.15 ± 0.06 h
TNBC cells [8]
  cell cycle distribution: higher proportion of TNBC cells remained in S and G2 phases
